The EC50 is the concentration needed to bring the measured effect to its halfway point. A lower EC50 goes with higher potency in that assay.

EC50 data for 19 compounds are collected here from US20220089575A1, “FARNESOID X RECEPTOR AGONISTS AND USES THEREOF” (Metacrine, Inc., priority 2017, published 2022).

The experiment addresses T1, hFXR (Homo sapiens, UniProt Q96RI1).
T1 construct: expressed in transfected cells; host or cells: CV-1 cells
T1 sequence (Q96RI1 1-486): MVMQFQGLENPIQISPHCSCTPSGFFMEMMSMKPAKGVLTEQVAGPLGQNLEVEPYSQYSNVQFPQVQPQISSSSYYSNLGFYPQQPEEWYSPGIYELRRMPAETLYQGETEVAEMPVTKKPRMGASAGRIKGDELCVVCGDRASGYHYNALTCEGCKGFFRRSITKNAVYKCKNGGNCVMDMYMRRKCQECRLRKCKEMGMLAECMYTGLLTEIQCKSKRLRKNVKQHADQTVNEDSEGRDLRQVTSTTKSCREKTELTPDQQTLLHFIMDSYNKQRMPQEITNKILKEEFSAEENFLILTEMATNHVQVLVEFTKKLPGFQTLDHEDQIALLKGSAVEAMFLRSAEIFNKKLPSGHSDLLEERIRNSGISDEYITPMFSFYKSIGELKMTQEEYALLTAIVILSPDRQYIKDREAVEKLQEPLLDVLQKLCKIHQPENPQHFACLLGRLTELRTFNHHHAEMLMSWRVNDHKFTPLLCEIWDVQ
T1 sequence (P19793 1-462 partner): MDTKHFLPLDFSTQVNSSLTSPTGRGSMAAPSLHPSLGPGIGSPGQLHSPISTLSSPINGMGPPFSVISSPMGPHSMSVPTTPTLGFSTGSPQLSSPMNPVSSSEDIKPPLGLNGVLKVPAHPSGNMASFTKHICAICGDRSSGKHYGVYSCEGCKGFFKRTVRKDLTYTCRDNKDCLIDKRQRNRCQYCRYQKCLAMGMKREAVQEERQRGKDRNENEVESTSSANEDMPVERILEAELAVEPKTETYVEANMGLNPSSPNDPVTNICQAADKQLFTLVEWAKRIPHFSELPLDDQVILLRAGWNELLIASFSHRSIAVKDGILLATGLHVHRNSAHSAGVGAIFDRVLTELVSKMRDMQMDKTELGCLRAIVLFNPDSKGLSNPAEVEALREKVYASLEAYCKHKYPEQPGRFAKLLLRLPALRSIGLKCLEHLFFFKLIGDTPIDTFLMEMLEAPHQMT
In words: In Vitro FXR Assay (TK): TK-ECRE-luc reporter in transfected CV-1 cells. The following applies: 18 hrs, luminescence, maximum efficacy of <25% of the Fexarmine control classified as '+'. The experiment is classed as cell-based. A digest of the protocol: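 Cells are seeded in charcoal double-stripped FBS medium, transfected overnight with FXR/RXR expression and ECRE-driven luciferase reporter plasmids, then treated with serially diluted compounds for 18 h. Lysates are measured for luciferase light output.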

Regarding `COCCNC(=O)[C@H]1CC[C@H](C(=O)N(C[C@H]2CC[C@H](c3ccc(OC)c(C)c3)CC2)c2cccc(-c3cnc(OC)s3)c2)CC1` [Compound 24.04, trans-N^1-((trans-4-(4-Methoxy-3-methylphenyl)cyclohexyl)methyl)-N^4-(2-methoxyethyl)-N^1-(3-(2-methoxythiazol-5-yl)phenyl) cyclohexane-1,4-dicarboxamide], the EC50 was at most 250 nM.

In turn, `CNC(=O)O[C@H]1CC[C@H](C(=O)N(C[C@H]2CC[C@H](c3ccc(OC)c(C)n3)CC2)c2cc(-c3cnn(C4CC4)c3)ccn2)CC1` [Compound 5.13, trans-4-((4-(1-Cyclopropyl-1H-pyrazol-4-yl)pyridin-2-yl)((trans-4-(5-methoxy-6-methylpyridin-2-yl)cyclohexyl)methyl)carbamoyl)cyclohexyl methylcarbamate] had an EC50 of at most 250 nM. For `COc1ccc([C@H]2CC[C@H](CN(c3cc(-c4cnn(C(C)C)c4)ccn3)C(=O)[C@H]3CC[C@H](OC(=O)N4CC(O)C4)CC3)CC2)cc1C` [Compound 7.16, trans-4-((4-(1-Isopropyl-1H-pyrazol-4-yl)pyridin-2-yl)((trans-4-(4-methoxy-3-methylphenyl)cyclohexyl)methyl)carbamoyl)cyclohexyl 3-hydroxyazetidine-1-carboxylate] the value was at most 250 nM; for `CNC(=O)O[C@H]1CC[C@H](C(=O)N(C[C@H]2CC[C@H](c3ccc(OC)c(C)n3)CC2)c2cccc(-c3coc(C(C)C)n3)c2)CC1` [Compound 5.31, trans-4-((3-(2-Isopropyloxazol-4-yl)phenyl)((trans-4-(5-methoxy-6-methylpyridin-2-yl)cyclohexyl)methyl)carbamoyl)cyclohexyl methylcarbamate], at most 250 nM. The figure for `CNC(=O)O[C@H]1CC[C@H](C(=O)N(C[C@H]2CC[C@H](c3ccc(OC)c(C)n3)CC2)c2cc(-c3coc(C(C)C)n3)ccn2)CC1` [Compound 5.43, trans-4-((4-(2-Isopropyloxazol-4-yl)pyridine-2-yl)((trans-4-(5-methoxy-6-methylpyridin-2-yl)cyclohexyl)methyl)carbamoyl)cyclohexyl methylcarbamate] is at most 250 nM; for `COc1ccc([C@H]2CC[C@H](CN(c3cc(-c4cnc(C(C)C)s4)ccn3)C(=O)[C@H]3CC[C@H](OC(=O)N4CC(O)C4)CC3)CC2)nc1C` [Compound 7.07, trans-4-((4-(2-Isopropylthiazol-5-yl)pyridin-2-yl)((trans-4-(5-methoxy-6-methylpyridin-2-yl)cyclohexyl)methyl)carbamoyl)cyclohexyl 3-hydroxyazetidine-1-carboxylate] it is at most 250 nM; for `CNC(=O)O[C@H]1CC[C@H](C(=O)N(C[C@H]2CC[C@H](c3ccc(OC)c(C)c3)CC2)c2cccc(-c3cnc(OC)s3)c2)CC1` [Compound 2.01, trans-4-(((trans-4-(4-Methoxy-3-methylphenyl)cyclohexyl)methyl)(3-(2-methoxythiazol-5-yl)phenyl)carbamoyl)cyclohexyl methylcarbamate] it is at most 250 nM. For `COc1ccc([C@H]2CC[C@H](CN(c3cccc(-c4cnn(C5CC5)c4)c3)C(=O)[C@H]3CC[C@H](OC(=O)N4CC(CN(C)C)C4)CC3)CC2)cc1C` [Compound 7.32, trans-4-((3-(1-Cyclopropyl-1H-pyrazol-4-yl)phenyl)((trans-4-(4-methoxy-3-methylphenyl)cyclohexyl)methyl)carbamoyl)cyclohexyl 3-((dimethylamino)methyl)azetidine-1-carboxylate] the value was at most 250 nM; for `COc1ccc([C@H]2CC[C@H](CN(c3cccc(-c4cnc(C5CC5)s4)c3)C(=O)[C@H]3CC[C@H](OC(=O)N4CC(O)C4)CC3)CC2)nc1C` [Compound 7.11, trans-4-((3-(2-Cyclopropylthiazol-5-yl)phenyl)((trans-4-(5-methoxy-6-methylpyridin-2-yl)cyclohexyl)methyl)carbamoyl)cyclohexyl 3-hydroxyazetidine-1-carboxylate], at most 250 nM. For the compound `COc1ccc([C@H]2CC[C@H](CN(c3cc(-c4cnc(C5CC5)s4)ccn3)C(=O)[C@H]3CC[C@H](C(=O)O)CC3)CC2)nc1C` [Compound 17.10, trans-4-((4-(2-Cyclopropylthiazol-5-yl)pyridin-2-yl)((trans-4-(5-methoxy-6-methylpyridin-2-yl)cyclohexyl)methyl)carbamoyl) cyclohexanecarboxylic acid], the EC50 was in the range of 250 to 1000 nM. The figure for `COCCNC(=O)O[C@H]1CC[C@H](C(=O)N(C[C@H]2CC[C@H](c3ccc(OC)c(C#N)c3)CC2)c2cc(-c3cnn(C(C)C)c3)ccn2)CC1` [Compound 6.34, trans-4-(((trans-4-(3-Cyano-4-methoxyphenyl)cyclohexyl)methyl)(4-(1-isopropyl-1H-pyrazol-4-yl)pyridin-2-yl)carbamoyl)cyclohexyl (2-methoxyethyl)carbamate] is at most 250 nM.

In turn, `COc1ccc([C@H]2CC[C@H](CN(c3cccc(-c4cnn(C5CC5)c4)c3)C(=O)[C@H]3CC[C@H](OC(=O)N4CC(N(C)C(=O)OC(C)(C)C)C4)CC3)CC2)cc1C` [Compound 7.36, trans-4-((3-(1-Cyclopropyl-1H-pyrazol-4-yl)phenyl)((trans-4-(4-methoxy-3-methylphenyl)cyclohexyl)methyl)carbamoyl)cyclohexyl 3-((tert-butoxycarbonyl)(methyl)amino) azetidine-1-carboxylate] had a concentration giving a half-maximal response (EC50) of at most 250 nM. For the compound `COc1ccc([C@H]2CC[C@H](CN(c3cc(-c4cnn(C(C)C)c4)ccn3)C(=O)[C@H]3CC[C@H](OC(=O)NC4CC4)CC3)CC2)cc1C#N` [Compound 6.35, trans-4-(((trans-4-(3-Cyano-4-methoxyphenyl)cyclohexyl)methyl)(4-(1-isopropyl-1H-pyrazol-4-yl)pyridin-2-yl)carbamoyl)cyclohexyl cyclopropylcarbamate], the EC50 was at most 250 nM. The figure for `COc1ccc([C@H]2CC[C@H](CN(c3cccc(-c4cnn(C5CC5)c4)c3)C(=O)[C@H]3CC[C@H](OC(=O)N4CCN(C)CC4)CC3)CC2)cc1C` [Compound 6.25, trans-4-((3-(1-Cyclopropyl-1H-pyrazol-4-yl)phenyl)((trans-4-(4-methoxy-3-methylphenyl)cyclohexyl)methyl)carbamoyl)cyclohexyl 4-methylpiperazine-1-carboxylate] is at most 250 nM. The compound `CNC(=O)O[C@H]1CC[C@H](C(=O)N(C[C@H]2CC[C@H](c3ccc(N(C)C)nc3)CC2)c2cccc(-c3coc(C4CC4)n3)c2)CC1` [Compound 3.05, trans-4-((3-(2-Cyclopropyloxazol-4-yl)phenyl)((trans-4-(6-(dimethylamino)pyridine-3-yl)cyclohexyl)methyl)carbamoyl)cyclohexyl methylcarbamate] gave an EC50 of at most 250 nM. In turn, `COc1ccc([C@H]2CC[C@H](CN(c3cccc(-c4coc(C5CC5)n4)c3)C(=O)[C@H]3CC[C@H](C(=O)O)CC3)CC2)nc1C` [Compound 18.01, trans-4-((3-(2-Cyclopropyloxazol-4-yl)phenyl)((trans-4-(5-methoxy-6-methylpyridin-2-yl)cyclohexyl)methyl)carbamoyl) cyclohexanecarboxylic acid] returned an EC50 of at most 250 nM. The figure for `COc1ccc([C@H]2CC[C@H](CN(c3cc(-c4coc(C5CC5)n4)ccn3)C(=O)[C@H]3CC[C@H](CC(=O)O)CC3)CC2)cc1C` [Compound 21.01, 2-(trans-4-((4-(2-Cyclopropyloxazol-4-yl)pyridin-2-yl)((trans-4-(4-methoxy-3-methylphenyl)cyclohexyl)methyl)carbamoyl)cyclohexyl)acetic acid] is at most 250 nM. In the case of `COc1ccc([C@H]2CC[C@H](CN(c3cccc(-c4coc(C5CC5)n4)c3)C(=O)[C@H]3CC[C@H](OC(=O)NCCO)CC3)CC2)nc1C#N` [Compound 6.55, trans-4-(((trans-4-(6-Cyano-5-methoxypyridin-2-yl)cyclohexyl)methyl)(3-(2-cyclopropyloxazol-4-yl)phenyl)carbamoyl)cyclohexyl (2-hydroxyethyl)carbamate], the concentration giving a half-maximal response (EC50) was at most 250 nM. The figure for `CNC(=O)O[C@H]1CC[C@H](C(=O)N(C[C@H]2CC[C@H](c3ccc(N(C)C)nc3)CC2)c2cccc(-c3cnc(C4CC4)s3)c2)CC1` [Compound 1, trans-4-((3-(2-Cyclopropylthiazol-5-yl)phenyl)((trans-4-(6-(dimethylamino)pyridin-3-yl)cyclohexyl)methyl)carbamoyl)cyclohexyl methylcarbamate] is at most 250 nM.
